30 compounds from patent publication US12208088B2 (Genentech, Inc., priority 2018, dated 2025) can be followed below.

Structures are written as SMILES.

This experiment has as its target HPK1 (Homo sapiens (Human), UniProt Q92918). As to the kind of experiment: HPK1 Lantha binding assay ("Lanth"). Conditions: binding assays; Morrison Ki fit. The procedure, abridged: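 TR-FRET binding competition using 2 nM HPK1, 2 nM Eu-anti-GST antibody and 15 nM Tracer222 at 23 °C. Compound was incubated 1 h with enzyme and antibody, then 1 h after tracer addition, with an 11-point 5-fold dilution series. Ki obtained from a Morrison fit that corrects for tracer concentration and Kd.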

HPK1, sequence (Q92918 1-346 limits assumed): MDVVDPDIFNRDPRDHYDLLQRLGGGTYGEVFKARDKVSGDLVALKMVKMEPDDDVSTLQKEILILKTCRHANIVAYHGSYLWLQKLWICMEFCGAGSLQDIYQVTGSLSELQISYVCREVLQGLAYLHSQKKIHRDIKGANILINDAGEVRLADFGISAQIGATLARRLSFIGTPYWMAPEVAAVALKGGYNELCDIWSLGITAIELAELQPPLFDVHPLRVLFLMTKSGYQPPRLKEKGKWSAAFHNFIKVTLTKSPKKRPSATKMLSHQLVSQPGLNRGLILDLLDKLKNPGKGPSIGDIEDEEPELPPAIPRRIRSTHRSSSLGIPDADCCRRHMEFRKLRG

Turning to `CN(CCN1CCOCC1)C(=O)c1c(N)ccc(-c2cnc3c(c2Cl)[C@]2(CC[C@](C)(C#N)C2)CN3)c1F` (relative stereo) [Compound 272a, 6-Amino-3-((1R,3S)-4′-chloro-3-cyano-3-methyl-1′,2′-dihydrospiro[cyclopentane-1,3′-pyrrolo[2,3-b]pyridin]-5′-yl)-2-fluoro-N-methyl-N-(2-morpholinoethyl)benzamide], the Ki (usually a measure of affinity in units of concentration, obtained from inhibition or displacement) came to 30.8 nM.
Compound `CN(C)CCCN(C)C(=O)c1c(N)ccc(-c2cnc3c(c2Cl)[C@]2(CC[C@](C)(C#N)C2)CN3)c1F` (relative stereo) [Compound 275a, 6-Amino-3-((1R,3S)-4′-chloro-3-cyano-3-methyl-1′,2′-dihydrospiro[cyclopentane-1,3′-pyrrolo[2,3-b]pyridin]-5′-yl)-N-(3-(dimethylamino)propyl)-2-fluoro-N-methylbenzamide] gave a Ki of 41 nM.
Take `CN1CCN(c2cccc3c(-c4cnc5c(c4Cl)[C@]4(CC[C@H](C(N)=O)C4)CN5)c[nH]c23)C(=O)C1` (relative stereo) [Compound 304a, (1R,3S)-4′-Chloro-5′-(7-(4-methyl-2-oxopiperazin-1-yl)-1H-indol-3-yl)-1′,2′-dihydrospiro[cyclopentane-1,3′-pyrrolo[2,3-b]pyridine]-3-carboxamide]: affinity was put at a Ki of 43.9 nM.
The same measure for `NC(=O)[C@H]1CC[C@@]2(CNc3ncc(-c4c[nH]c5c(N6CCNCC6=O)cccc45)c(Cl)c32)C1` (relative stereo) [Compound 305a, (1RS,3SR)-4′-Chloro-5′-(7-(2-oxopiperazin-1-yl)-1H-indol-3-yl)-1′,2′-dihydrospiro[cyclopentane-1,3′-pyrrolo[2,3-b]pyrdine]-3-carboxamide]: 38.6 nM.
The same measure for `C[C@@H]1C[C@@]12CNc1ncc(-c3c[nH]c4c(N5CCNCC5=O)cccc34)cc12` (relative stereo) [Compound 306a, 1-(3-((1R,2R)-2-methyl-1′,2′-dihydrospiro[cyclopropane-1,3′-pyrrolo[2,3-b]pyridin]-5′-yl)-1H-indol-7-yl)piperazin-2-one]: 43.2 nM.
Regarding `C[C@]1(C#N)CC[C@@]2(CNc3ncc(-c4c[nH]c5ccc(C#N)cc45)c(Cl)c32)C1` (relative stereo) [Compound 330a, (1R,3S)-4′-Chloro-5′-(5-cyano-1H-indol-3-yl)-3-methyl-1′,2′-dihydrospiro[cyclopentane-1,3′-pyrrolo[2,3-b]pyridine]-3-carbonitrile], the Ki came to 73.9 nM.
Compound `C[C@]1(C(N)=O)CC[C@@]2(CNc3ncc(-c4c[nH]c5ccc(C#N)cc45)c(Cl)c32)C1` (relative stereo) [Compound 337a, (1R,3S)-4′-Chloro-5′-(5-cyano-1H-indol-3-yl)-3-methyl-1′,2′-dihydrospiro[cyclopentane-1,3′-pyrrolo[2,3-b]pyridine]-3-carboxamide] gave a Ki of 28.4 nM.
`CN(C)C(=O)c1c(N)ccc(-c2cnc3c(c2Cl)[C@@]2(CN3)C[C@@H]2CO)c1F` (single isomer, unassigned) [Compound 39c] had a Ki of 11.6 nM.
`CN(C)C(=O)c1c(N)ccc(-c2cnc3c(c2Cl)[C@]2(CN3)C[C@H]2CO)c1F` (single isomer, unassigned) [Compound 39d]: the Ki is 18.7 nM.
The same measure for `Nc1cc(-c2cnc3c(c2Cl)[C@]2(CC[C@H](O)C2)CN3)cc(-c2ncccc2CO)c1` (single isomer, unassigned) [Compound 61a]: 39.1 nM; for `Nc1cc(-c2cnc3c(c2Cl)[C@@]2(CC[C@@H](O)C2)CN3)cc(-c2ncccc2CO)c1` (single isomer, unassigned) [Compound 61b]: 12.1 nM; for `Cn1cccc(-c2cccc(-c3cnc4c(c3Cl)C3(CC[C@@H](O)C3)CN4)c2)c1=O` (single isomer, unassigned) [Compound 68a]: 17.9 nM.
`Cn1cccc(-c2cccc(-c3cnc4c(c3Cl)C3(CC[C@@H](O)C3)CN4)c2)c1=O` (single isomer, unassigned) [Compound 68b] returned a Ki of 7.7 nM.
Regarding `CN(C)C(=O)c1c(N)ccc(-c2cnc3c(c2Cl)[C@]2(CC[C@@H](n4ccnn4)C2)CN3)c1F` (single isomer, unassigned) [Compound 90c], the Ki is 80.4 nM.
The compound `CN(C)C(=O)c1c(N)ccc(-c2cnc3c(c2Cl)[C@]2(CC[C@H](c4ncn[nH]4)C2)CN3)c1F` (single isomer, unassigned) [Compound 99a] registered a Ki of 14.5 nM.
On to `CN(C)C(=O)c1c(N)ccc(-c2cnc3c(c2Cl)[C@]2(CC[C@H](C(N)=O)C2)CN3)c1F` (single isomer, unassigned) [Compound 100a], for which the Ki came to 63.5 nM.
With `CN(C)C(=O)c1c(N)ccc(-c2cnc3c(c2Cl)[C@@]2(CC[C@@H](C(N)=O)C2)CN3)c1F` (single isomer, unassigned) [Compound 100b], the Ki came out at 1.74 nM.
To `CN(C)C(=O)c1c(N)ccc(-c2cnc3c(c2Cl)[C@]2(CC[C@H](C(=O)O)C2)CN3)c1F` (single isomer, unassigned) [Compound 105a] belongs 9.85 nM; to `CN(C)C(=O)c1c(N)ccc(-c2cnc3c(c2Cl)[C@]2(CC[C@H](C(=O)N(C)C)C2)CN3)c1F` (single isomer, unassigned) [Compound 107a], 50.1 nM.
Compound `CN(C)C(=O)c1c(N)ccc(-c2cnc3c(c2Cl)[C@]2(CC[C@](O)(Cn4cncn4)C2)CN3)c1F` (single isomer, unassigned) [Compound 116c] had a Ki of 140 nM.
The same measure for `CN(C)C(=O)c1c(N)ccc(-c2cnc3c(c2Cl)[C@]2(CC[C@H](n4ncnc4N)C2)CN3)c1F` (single isomer, unassigned) [Compound 118a]: 8.49 nM; for `CN(C)C(=O)c1c(N)ccc(-c2cnc3c(c2Cl)[C@@]2(CCC(=O)NC2)CN3)c1F` (single isomer, unassigned) [Compound 123a]: 37.6 nM; for `CN(C)C(=O)c1c(N)ccc(-c2cnc3c(c2Cl)[C@]2(CCC(=O)NC2)CN3)c1F` (single isomer, unassigned) [Compound 123b]: 771 nM.
As to `C[C@H]1Nc2ncc(-c3ccc(N)c(C(=O)N(C)C)c3F)cc2C12CC2` (single isomer, unassigned) [Compound 128a], the affinity, expressed as Ki, was 46.6 nM.
In turn, `C[C@@H]1Nc2ncc(-c3ccc(N)c(C(=O)N(C)C)c3F)cc2C12CC2` (single isomer, unassigned) [Compound 128b] returned a Ki of 42.2 nM.
`CN(C)C(=O)c1c(N)ccc(-c2cnc3c(c2Cl)[C@]2(CC[C@](C)(C#N)C2)CN3)c1F` (single isomer, unassigned) [Compound 131a] showed a Ki of 3.93 nM.
Turning to `CN(C)C(=O)c1c(N)ccc(-c2cnc3c(c2Cl)[C@]2(CC[C@@H](CC(N)=O)C2)CN3)c1F` (single isomer, unassigned) [Compound 135c], the Ki came out at 2.95 nM.
For the compound `CN(C)C(=O)c1c(N)ccc(-c2cnc3c(c2Cl)[C@]2(CC[C@H](N4CCCC4=O)C2)CN3)c1F` (single isomer, unassigned) [Compound 143a], the Ki is 157 nM.
The compound `CN(C)C(=O)c1c(N)ccc(-c2cnc3c(c2Cl)[C@@]2(CN3)C[C@H](O)[C@@H](n3ccnn3)C2)c1F` (single isomer, unassigned) [Compound 146c] showed a Ki of 74.6 nM.
The same measure for `CN(C)C(=O)c1c(N)ccc(-c2cnc3c(c2Cl)[C@@]2(CC[C@@](C)(C(N)=O)C2)CN3)c1F` (single isomer, unassigned) [Compound 155b]: 84.8 nM.
